{"source": "patent US7351728B2", "about": "“Oxazolyl-aryloxyacetic acid derivatives and their use as PPAR agonists” (Eli Lilly and Company, priority 2003, dated 2008)", "molecular_target": "T1, huPPARα (Homo sapiens, UniProt Q07869)", "T1 sequence (Q07869 1-468)": "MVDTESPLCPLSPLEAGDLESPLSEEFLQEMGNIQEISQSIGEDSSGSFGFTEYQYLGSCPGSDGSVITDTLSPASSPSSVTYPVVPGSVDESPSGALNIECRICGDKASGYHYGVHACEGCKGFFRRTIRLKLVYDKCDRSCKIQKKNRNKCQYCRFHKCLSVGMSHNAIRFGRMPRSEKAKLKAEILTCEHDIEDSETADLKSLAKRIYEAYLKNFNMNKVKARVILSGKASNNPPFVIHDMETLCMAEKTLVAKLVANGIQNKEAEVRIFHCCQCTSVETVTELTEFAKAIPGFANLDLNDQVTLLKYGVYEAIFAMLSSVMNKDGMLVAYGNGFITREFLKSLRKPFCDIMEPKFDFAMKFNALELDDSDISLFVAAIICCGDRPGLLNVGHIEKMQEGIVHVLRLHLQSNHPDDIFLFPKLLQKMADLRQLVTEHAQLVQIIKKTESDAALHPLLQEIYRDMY", "T1 sequence (P19793 1-462 partner)": "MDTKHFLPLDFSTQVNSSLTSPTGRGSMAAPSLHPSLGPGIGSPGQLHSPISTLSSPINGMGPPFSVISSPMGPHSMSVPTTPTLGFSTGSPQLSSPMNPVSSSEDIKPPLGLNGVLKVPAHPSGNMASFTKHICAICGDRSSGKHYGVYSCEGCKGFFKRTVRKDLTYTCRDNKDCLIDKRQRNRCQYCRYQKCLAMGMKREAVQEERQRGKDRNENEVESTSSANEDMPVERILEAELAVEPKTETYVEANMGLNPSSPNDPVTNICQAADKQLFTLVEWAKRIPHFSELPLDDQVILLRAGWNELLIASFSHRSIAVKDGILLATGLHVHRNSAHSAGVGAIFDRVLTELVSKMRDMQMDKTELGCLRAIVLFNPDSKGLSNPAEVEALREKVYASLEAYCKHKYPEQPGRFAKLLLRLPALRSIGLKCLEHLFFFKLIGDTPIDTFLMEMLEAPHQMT", "test": "DNA-dependent binding (ABCD binding), SPA, tritium-labeled PPARα agonist radioligand", "conditions": "displacement of tritium-labeled PPARα agonist", "experimental": "DNA-dependent binding (ABCD binding) was carried out using SPA technology with PPAR receptors. Tritium-labeled PPARα and PPARγ agonists were used as radioligands for generating displacement curves and IC50 values with compounds of the invention. Cotransfection assays were carried out in CV-1 cells. The reporter plasmid contained an acylCoA oxidase (AOX) PPRE and TK promoter upstream of the luciferase reporter cDNA. Appropriate PPARs and RXRα were constitutively expressed using plasmids containing the CMV promoter. […] In order to eliminate such interference, a GAL4 chimeric system was used in which the DNA binding domain of the transfected PPAR was replaced by that of GAL4, and the GAL4 response element was utilized in place of the AOX PPRE. Cotransfection efficacy was determined relative to PPARα agonist and PPARγ agonist reference molecules. Efficacies were determined by computer fit to a concentration-response curve, or in some cases at a single high concentration of agonist (10 μM). For binding or cotransfection studies with receptors other than PPARs, similar assays were carried out using appropriate ligands, receptors, reporter constructs, etc., for that particular receptor.\nThese studies were carried out to evaluate the ability of compounds of the invention to bind to and/or activate various nuclear transcription factors, particularly huPPARα (“hu” indicates “human”) and huPPARγ. These studies provide in vitro data concerning efficacy and selectivity of compounds of the invention. Furthermore, binding and cotransfection data for compounds of the invention were compared with corresponding data for marketed compounds that act on either huPPARα or huPPARγ.\nBinding and cotransfection data for representative compounds of the invention are compared with corresponding data for reference compounds in Table II.", "data": [{"smiles": "Cc1oc(-c2ccccc2)nc1CCOc1ccc(OC(C)(C)C(=O)O)cc1", "note": "[Example 1, 2-Methyl-2-{4-[2-(5-methyl-2-phenyloxazol-4-yl)ethoxy]phenoxy}propionic acid]", "values": [{"measurement": "IC50", "value": 1.68, "unit": "µM"}]}, {"smiles": "Cc1oc(-c2cccc(Br)c2)nc1CCOc1ccc(OC(C)(C)C(=O)O)cc1", "note": "[Example 9A, 2-(4-{2-[2-(3-Bromophenyl)-5-methyloxazol-4-yl]ethoxy}phenoxy)-2-methylpropionic acid]", "values": [{"measurement": "IC50", "value": 0.075, "unit": "µM"}]}, {"smiles": "CCc1cccc(-c2nc(CCOc3ccc(OC(C)(C)C(=O)O)cc3)c(C)o2)c1", "note": "[Example 12, 2-(4-{2-[2-(3-Ethylphenyl)-5-methyloxazol-4-yl]ethoxy}phenoxy)-2-methylpropionic acid]", "values": [{"measurement": "IC50", "value": 0.031, "unit": "µM"}]}, {"smiles": "Cc1oc(-c2cccc(CCc3ccccc3)c2)nc1CCOc1ccc(OC(C)(C)C(=O)O)cc1", "note": "[Example 12A, 2-Methyl-2-(4-{2-[5-methyl-2-(3-phenethylphenyl)oxazol-4-yl]ethoxy}phenoxy)-propionic acid]", "values": [{"measurement": "IC50", "value": 0.233, "unit": "µM"}]}, {"smiles": "CCc1ccc(-c2nc(CCOc3ccc(OC(C)(C)C(=O)O)cc3)c(C)o2)cc1", "note": "[Example 13, 2-(4-{2-[2-(4-Ethylphenyl)-5-methyloxazol-4-yl]ethoxy}phenoxy)-2-methylpropionic acid]", "values": [{"measurement": "IC50", "value": 0.025, "unit": "µM"}]}, {"smiles": "Cc1oc(-c2ccc(OC3CCCCC3)cc2)nc1CCOc1ccc(OC(C)(C)C(=O)O)cc1", "note": "[Example 21, 2-(4-{2-[2-(4-Cyclohexyloxy-phenyl)-5-methyl-oxazol-4-yl]-ethoxy}-phenoxy)-2-methyl-propionic acid]", "values": [{"measurement": "IC50", "value": 0.401, "unit": "µM"}]}, {"smiles": "Cc1cc(OCCc2nc(-c3ccccc3)oc2C)ccc1OC(C)(C)C(=O)O", "note": "[Example 24, 2-Methyl-2-{2-methyl-4-[2-(5-methyl-2-phenyloxazol-4-yl)ethoxy]phenoxy}propionic acid]", "values": [{"measurement": "IC50", "value": 0.624, "unit": "µM"}]}, {"smiles": "CCCc1cc(OCCc2nc(-c3ccccc3)oc2C)ccc1OCC(=O)O", "note": "[Example 26, {4-[2-(5-methyl-2-phenyl-oxazol-4-yl)ethoxy]-2-propylphenoxy}acetic acid]", "values": [{"measurement": "IC50", "value": 3.28, "unit": "µM"}]}, {"smiles": "CCCc1cc(OCCc2nc(-c3ccccc3)oc2C)ccc1OC(C)(C)C(=O)O", "note": "[Example 26A, 2-Methyl-2-{4-[2-(5-methyl-2-phenyloxazol-4-yl)ethoxy]-2-propylphenoxy}propionic acid]", "values": [{"measurement": "IC50", "value": 0.079, "unit": "µM"}]}, {"smiles": "CCCc1cc(OC(C)(C)C(=O)O)ccc1OCCc1nc(-c2ccccc2)oc1C", "note": "[Example 27A, 2-Methyl-2-{4-[2-(5-methyl-2-phenyloxazol-4-yl)ethoxy]-3-propylphenoxy}propionic acid]", "values": [{"measurement": "IC50", "value": 0.113, "unit": "µM"}]}, {"smiles": "CCc1cc(OCCc2nc(-c3ccccc3)oc2C)ccc1OC(C)(C)C(=O)O", "note": "[Example 30A, 2-{2-Ethyl-4-[2-(5-methyl-2-phenyloxazol-4-yl)ethoxy]phenoxy}2-methylpropionic acid]", "values": [{"measurement": "IC50", "value": 0.189, "unit": "µM"}]}, {"smiles": "Cc1oc(-c2ccccc2)nc1CCOc1ccc(OC(C)(C)C(=O)O)c(CC(C)C)c1", "note": "[Example 30C, 2-{2-Isobutyl-4-[2-(5-methyl-2-phenyloxazol-4-yl)ethoxy]phenoxy}-2-methylpropionic acid]", "values": [{"measurement": "IC50", "value": 0.259, "unit": "µM"}]}, {"smiles": "Cc1oc(-c2ccccc2)nc1CCOc1ccc(OC(C)(C)C(=O)O)c(CCc2ccccc2)c1", "note": "[Example 30J, 2-Methyl-2-{4-[2-(5-methyl-2-phenyloxazol-4-yl)ethoxy]-2-phenethylphenoxy}propionic acid]", "values": [{"measurement": "IC50", "value": 0.082, "unit": "µM"}]}, {"smiles": "CCCCc1cc(OC(C)(C)C(=O)O)ccc1OCCc1nc(-c2ccccc2)oc1C", "note": "[Example 31F, 2-{3-Butyl-4-[2-(5-methyl-2-phenyloxazol-4-yl)ethoxy]phenoxy}-2-methylpropionic acid]", "values": [{"measurement": "IC50", "value": 0.03, "unit": "µM"}]}, {"smiles": "Cc1oc(-c2ccccc2)nc1CCOc1ccc(OC(C)(C)C(=O)O)c(Cc2ccccc2)c1", "note": "[Example 32, 2-{2-Benzyl-4-[2-(5-methyl-2-phenyloxazol-4-yl)ethoxy]phenoxy}-2-methylpropionic acid]", "values": [{"measurement": "IC50", "value": 0.05, "unit": "µM"}]}, {"smiles": "Cc1oc(-c2ccccc2)nc1CCOc1ccc(OC(C)(C)C(=O)O)c2ccccc12", "note": "[Example 37, 2-Methyl-2-{4-[2-(5-methyl-2-phenyl-oxazol-4-yl)-ethoxy]-naphthalen-1-yloxy}-propionic acid]", "values": [{"measurement": "IC50", "value": 0.294, "unit": "µM"}]}, {"smiles": "Cc1oc(-c2ccccc2)nc1CCOc1ccc(OC(C)(C)C(=O)O)c2c1CCCC2", "note": "[Example 38, 2-Methyl-2-{4-[2-(5-methyl-2-phenyl-oxazol-4-yl)-ethoxy]-5,6,7,8-tetrahydro-naphthalen-1-yloxy}-propionic acid]", "values": [{"measurement": "IC50", "value": 0.254, "unit": "µM"}]}]}
